Laboratory results reported in patent US20230044787A1, “TRICYCLE DIHYDROIMIDAZOPYRIMIDONE DERIVATIVE, PREPARATION METHOD THEREOF, PHARMACEUTICAL COMPOSITION AND USE THEREOF” (priority 2019, published 2023).

The molecules below were run against T1, Lp-PLA2 (Homo sapiens, UniProt Q13093) (assay: Lipoprotein-associated phospholipase A2 (Lp-PLA2) human plasma assay (Thio-PAF assay)). Details: Lp-PLA2 human plasma assay (Thio-PAF), pooled human plasma, 30-min pre-incubation at room temperature.
T1 construct: aliquoted and thawed 40 μL of pooled human plasma was previously added; from tissue; host or cells: pooled human plasma
T1 sequence (Q13093 22-441): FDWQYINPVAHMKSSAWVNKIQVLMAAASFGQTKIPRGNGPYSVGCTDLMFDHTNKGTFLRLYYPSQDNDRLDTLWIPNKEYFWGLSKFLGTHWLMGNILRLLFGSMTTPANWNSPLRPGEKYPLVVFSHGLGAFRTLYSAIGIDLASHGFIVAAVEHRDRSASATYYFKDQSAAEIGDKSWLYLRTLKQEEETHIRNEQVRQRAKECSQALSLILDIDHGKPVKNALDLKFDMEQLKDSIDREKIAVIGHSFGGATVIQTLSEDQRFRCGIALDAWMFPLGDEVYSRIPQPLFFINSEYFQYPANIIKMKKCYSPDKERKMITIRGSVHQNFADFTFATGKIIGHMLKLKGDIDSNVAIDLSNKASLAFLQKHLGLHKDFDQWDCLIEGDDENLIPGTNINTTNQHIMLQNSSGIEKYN
Format: biochemical
Protocol: Lipoprotein-Associated Phospholipase A2 (Lp-PLA2) Human Plasma Assay
The amount of sulfhydryl groups is continuously determined by the reaction with CPM (7-diethylamino-3-(4′-maleimidophenyl)-4-methylcoumarin), and the CPM is a maleimide of which fluorescence increases after Michael addition of sulfhydryl group. This assay can detect Lp-PLA2 activity in human plasma, as determined by specific inhibition of Lp-PLA2 inhibitors.
Thio-PAF assay was performed as quenched 75 μL assay. Compound source plate was prepared for each compound by preparing 1:3 (by volume) serial dilutions in pure DMSO in a 96-well microplate. The compound on the source plate was diluted 20-fold by transferring 3 μL of the compound from the compound source plate into a 96-well microplate pre-added with 57 μL of assay buffer by Rainin multichannel pipette. The assay buffer described above consisted of 50 mM HEPES, pH 7.4, 150 mM NaCl, 1 mM CHAPS. 1 μL of the 20-fold diluted compound was transferred by Rainin multichannel pipette into a 96-well Greiner 655076 (black) microplate to which aliquoted and thawed 40 μL of pooled human plasma was previously added. The plate was shaken for 20 seconds on a microplate shaker to mix well. After a 30-min pre-incubation at room temperature, 10 μL of substrate solution was added to the 96-well Greiner 655076 (black) microplate by Rainin multichannel pipette, in which the substrate solution contained 2.5 mM 2-thio-PAF [from ethanol stock], 32 μM CPM [from DMSO stock], and 3.2 mM NEM (N-ethylmaleimide) [freshly prepared in DMSO per experiment] in assay buffer consisting of 50 mM HEPES, pH 7.4; 150 mM NaCl; 1 mM CHAPS. After 2 min, the reaction was quenched with […] of 5% trifluoroacetic acid (TFA) in water. The plate was centrifuged at 2000 rpm for 1 minute. The plate was read at ex:380/em:485 using a Biotek Synergy H1 (H1MF) microplate reader. IC50 data, curves and QC analysis were performed using GraphPad Prism 6.0 and Excel.

SMILES | IC50 [nM]
N#Cc1cc(COc2cc3n(c(=O)n2)CC24CC(CN32)C4)ccc1Oc1ccnc(C(F)(F)F)c1 [Example 43] | 4
CC12CCCN1c1cc(OCc3cc(F)c(Oc4ccnc(OC(F)(F)F)c4)c(F)c3)nc(=O)n1C2 (stereo not drawn) [Example 55, 3-((3,5-difluoro-4-((2-(trifluoromethoxy)pyridin-4-yl)oxy)benzyl)oxy)-8a-methyl-7,8,8a,9-tetrahydro-1H,6H-pyrrolo[1′,2′:3,4]imidazo [1,2-c]pyrimidin-1-one] | 6.5
COc1c(N(C)Cc2ccc(F)c(F)c2)nc(=O)n2c1N1C[C@@H]3C[C@]1(CO3)C2 [Example 180] | 87.2
O=c1nc(OCc2ccc(Oc3ccnc(C(F)(F)F)c3)cc2)cc2n1C[C@]13CO[C@H](CN21)C3 [Example 15, (3S,11aR)-7-((4-((2-(trifluoromethyl)pyridin-4-yl)oxy)benzyl)oxy)-3,4-dihydro-1H,9H,11H-3,11a-methanopyrimido[6′,1′:2,3] imidazo[5,1-c][1,4]oxazin-9-one] | 6.6
O=c1nc(OCCc2cc(F)c(Oc3ccnc(C(F)(F)F)c3)c(F)c2)cc2n1C[C@]13CO[C@H](CN21)C3 [Example 99, (3S,11aR)-7-(3,5-difluoro-4-((2-(trifluoromethyl)pyridin-4-yl)oxy)phenethoxy)-3,4-dihydro-1H,9H,11H-3,11a-methanopyrimido[6′-,1′:2,3] imidazo[5,1-c][1,4]oxazin-9-one] | 5.6
CCC12CCCN1c1cc(OCc3cc(F)c(Oc4cnc(C(F)(F)F)nc4)c(F)c3)nc(=O)n1C2 (stereo not drawn) [Example 64, 3-((3,5-difluoro-4-((2-(trifluoromethyl)pyrimidin-5-yl)oxy)benzyl)oxy)-8a-ethyl-7,8,8a,9-tetrahydro-1H,6H-pyrrolo[1′,2′:3,4]imidazo [1,2-c]pyrimidin-1-one] | 22.6
O=c1nc(OCc2ccc(Oc3cnc(C(F)(F)F)nc3)c(F)c2)cc2n1CC13CC(CN21)C3 [Example 122, 3-((3-fluoro-4-((2-(trifluoromethyl)pyrimidin-5-yl)oxy)benzyl)oxy)-7,8-dihydro-1H,6H,9H-7,8a-methanopyrrolo[1′,2′:3,4] imidazo[1,2-c]pyrimidin-1-one] | 9.4
COc1c(OCCc2ccc(Oc3cccc(C(F)(F)F)c3)c(F)c2)nc(=O)n2c1N1CC3CC1(C3)C2 [Example 183, 3-(3-fluoro-4-(3-(trifluoromethyl)phenoxy)phenethoxy)-4-methoxy-7,8-dihydro-1H,6H, 9H-7,8a-methanopyrrolo[1′,2′:3,4]imidazo [1,2-c]pyrimidin-1-one] | 13.8
CC12CCCN1c1cc(OCc3ccc(Oc4cccc(C(F)(F)F)c4)c(C#N)c3)nc(=O)n1C2 (stereo not drawn) [Example 59, 5-(((8a-methyl-1-oxo-7,8,8a,9-tetrahydro-1H,6H-pyrrolo[1′,2′:3,4]imidazo [1,2-c]pyrimidin-3-yl)oxy)methyl)-2-(3-(trifluoromethyl)phenoxy) benzonitrile] | 2.4
O=c1nc(OCc2cccc(F)c2F)cc2n1CC13CC(CN21)C3 [Example 45, 3-((2,3-difluorobenzyl)oxy)-7,8-dihydro-1H,6H,9H-7,8a-methanopyrrolo[1′,2′:3,4] imidazo[1,2-c]pyrimidin-1-one] | 71.8
O=c1nc(OCc2cc(F)c(Oc3ccccc3)c(F)c2)cc2n1C[C@]13CO[C@H](CN21)C3 [Example 135, (3S,11aR)-7-((3,5-difluoro-4-phenoxybenzyl)oxy)-3,4-dihydro-1H,9H,11H-3,11a-methanopyrimido[6′,1′:2,3] imidazo[5,1-c][1,4]oxazin-9-one] | 17.2
O=c1nc(OCc2ccc(Oc3ccnc(C(F)F)c3)cc2)cc2n1CC13CC(CN21)C3 [Example 161] | 18.1
N#Cc1cc(COc2cc3n(c(=O)n2)C[C@@]24CO[C@@H](CN32)C4)ccc1Oc1cccc(C(F)(F)F)c1 [Example 33] | 6
CC12COCCN1c1cc(OCc3cc(F)c(Oc4ccnc(C(F)(F)F)c4)c(F)c3)nc(=O)n1C2 (stereo not drawn) [Example 78, 7-((3,5-difluoro-4-((2-(trifluoromethyl)pyridin-4-yl)oxy)benzyl)oxy)-11a-methyl-3,4,11,11a-tetrahydro-1H,9H-pyrimido[6′,1′:2,3]imidazo [5,1-c][1,4]oxazin-9-one] | 5
N#Cc1cc(COc2cc3n(c(=O)n2)CC24CC(CN32)C4)ccc1F [Example 103] | 6.2
O=c1nc(OCc2cc(F)c(Oc3ccnc(Cl)c3)c(F)c2)cc2n1C[C@@]13CO[C@@H](CN21)C3 [Example 28, (3R,11aS)-7-((4-((2-chloropyridin-4-yl)oxy)-3,5-difluorobenzyl)oxy)-3,4-dihydro-1H,9H,11H-3,11a-methanopyrimido[6′,1′:2,3] imidazo[5,1-c][1,4]oxazin-9-one] | 7.3
[2H]C1([2H])n2c(cc(OCc3cc(F)c(Oc4ccnc(C(F)(F)F)c4)c(F)c3)nc2=O)N2C[C@@H]3C[C@@]21CO3 [Example 93] | 3.7
N#Cc1cc(COc2cc3n(c(=O)n2)C[C@]24CO[C@H](CN32)C4)ccc1Oc1ccc(Cl)c(F)c1 [Example 20] | 6.8
COc1c(OCCc2ccc(Oc3ccnc(C(F)(F)F)c3)c(F)c2)nc(=O)n2c1N1CC3CC1(C3)C2 [Example 191, 3-(3-fluoro-4-((2-(trifluoromethyl)pyridin-4-yl)oxy)phenethoxy)-4-methoxy-7,8-dihydro-1H,6H,9H-7,8a-methanopyrrolo[1′,2′:3,4] imidazo[1,2-c]pyrimidin-1-one] | 6.2
COc1c(OCCc2ccc(Oc3cccc(C(F)(F)F)c3)cc2)nc(=O)n2c1N1CC3CC1(C3)C2 [Example 184, 4-methoxy-3-(4-(3-(trifluoromethyl)phenoxy)phenethoxy)-7,8-dihydro-1H,6H,9H-7,8a-methanopyrrolo[1′,2′:3,4]imidazo[1,2-c] pyrimidin-1-one] | 23.8
O=c1nc(OCc2ccc(Oc3ccc(C(F)(F)F)nc3)c(F)c2)cc2n1CC13CCC(CC1)N23 [Example 121, 3-((3-fluoro-4-((6-(trifluoromethyl)pyridin-3-yl)oxy)benzyl)oxy)-7,8-dihydro-1H,6H,9H-6,8a-ethanopyrrolo[1′,2′:3,4] imidazo[1,2-c]pyrimidin-1-one] | 8.6
Cn1cc(Oc2c(F)cc(COc3cc4n(c(=O)n3)C[C@]35CO[C@H](CN43)C5)cc2F)cn1 [Example 11, (3S,11aR)-7-((3,5-difluoro-4-((1-methyl-1H-pyrazol-4-yl)oxy)benzyl)oxy)-3,4-dihydro-1H,9H,11H-3,11a-methanopyrimido[6′,1′:2,3] imidazo[5,1-c][1,4]oxazin-9-one] | 10.8
O=c1nc(OCc2cc(F)c(Oc3ccnc(C(F)(F)F)c3)c(F)c2)cc2n1CC13CCC(CC1)CN23 [Example 53, 3-((3,5-difluoro-4-((2-(trifluoromethyl)pyridin-4-yl)oxy)benzyl)oxy)-6,7,8,9-tetrahydro-1H,10H-7,9a-ethanopyrido[1′,2′:3,4] imidazo[1,2-c]pyrimidin-1-one] | 14.3
O=c1nc(OCc2cc(F)c(Oc3ccc(F)c(F)c3)c(F)c2)cc2n1C[C@]13CO[C@H](CN21)C3 [Example 136] | 3.8
O=C(c1ccccc1)N1C[C@]23C[C@H]1CN2c1cc(OCc2ccc(Oc4ccnc(C(F)(F)F)c4)c(F)c2)nc(=O)n1C3 [Example 174] | 5
O=c1nc(OCc2ccc(Oc3ccnc(C(F)(F)F)c3)c(F)c2)cc2n1CC13CC(CCN21)C3 [Example 165, 3-((3-fluoro-4-((2-(trifluoromethyl)pyridin-4-yl)oxy)benzyl)oxy)-6,7,8,9-tetrahydro-1H,10H-8,9a-methano-pyrido[1′,2′:3,4] imidazo[1,2-c]pyrimidin-1-one] | 3.1
CC(C)(O)C12CN3c4cc(OCc5ccc(Oc6ccnc(C(F)(F)F)c6)c(F)c5)nc(=O)n4CC3(C1)C2 [Example 201, 3-((3-Fluoro-4-((2-trifluoromethylpyridin-4-yl)oxy)benzyl)oxy)-7-(2-hydroxypropyl-2-yl)-7,8-dihydro-1H,6H,9H-7,8a-methanopyrrolo[1′, 2′:3, 4]imidazo[1,2-c]pyrimidin-1-one] | 4.4
